Reference: ChEMBL document CHEMBL1201862, “PubChem BioAssay data set” (2004)
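All cell lines were grown in 96-well plates and treated with compound for 48 hours. Here, GI50 denotes the concentration required for 50% inhibition of growth.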 The source made the active and inactive calls. No stated cut-off is given here; in the data, active = GI50 up to about 1.1 µM and inactive = higher.

Key:
Experiment in all cases: growth of human tumour cells (NCI), 48 h
DLD-1 = system: DLD-1
SNB-78 = system: SNB-78
KM-20L2 = system: KM-20L2
XF498 = system: XF498
HOP-18 = system: HOP-18
BT-549 = system: BT-549
LXFL 529 = system: LXFL 529
DMS-114 = system: DMS-114
RXF 631 = system: RXF 631

SMILES | GI50 (DLD-1) | GI50 (KM-20L2) | GI50 (BT-549) | GI50 (LXFL 529) | further results
Nc1nc(N)c(-c2ccccc2)c(C(=O)Nc2ccccc2)n1 | > 100 µM (inactive) | > 100 µM (inactive) | – | – | GI50 (SNB-78): > 100 µM (inactive); GI50 (XF498): > 100 µM (inactive); GI50 (HOP-18): > 100 µM (inactive)
CN[C@@H](Cc1cccc2ccccc12)C(=O)N[C@@H](CC(C)C)B(O)O | – | – | < 0.01 µM (active) | – | –
CCc1ccccc1NC(=O)C(=O)CC(=O)c1sc(Nc2ccccc2Cl)nc1C | – | – | 34.8 µM (inactive) | – | –
COC(=O)C1=CC(=O)OC1(OO)c1ccc(Br)cc1 (stereo not drawn) | – | – | > 100 µM (inactive) | – | –
OCCN(C1=NCCN1)/[N+](=C/c1ccccc1O)[CH-]c1ccccc1O | – | – | 37.8 µM (inactive) | – | –
O=C1C=Cc2c1csc2Br | – | – | 27.4 µM (inactive) | – | –
CCN1CCC(O)(c2ccc(C)cc2)C(C(=O)c2ccc(C)cc2)C1 (stereo not drawn) | 18.1 µM (inactive) | 13 µM (inactive) | – | 17.4 µM (inactive) | GI50 (SNB-78): > 51.8 µM (inactive); GI50 (XF498): 18 µM (inactive); GI50 (HOP-18): 22.1 µM (inactive)
C/C(CCn1[nH]c(=O)ccc1=O)=N\N=C(N)N | > 100 µM (inactive) | > 100 µM (inactive) | – | > 100 µM (inactive) | GI50 (DMS-114): > 100 µM (inactive); GI50 (SNB-78): > 100 µM (inactive); GI50 (XF498): > 100 µM (inactive); GI50 (HOP-18): > 100 µM (inactive)
NC1=C(NC(=O)Cc2ccccc2F)C(=O)c2ccccc2C1=O | 16.6 µM (inactive) | 40.7 µM (inactive) | – | – | GI50 (DMS-114): 41.8 µM (inactive); GI50 (HOP-18): > 100 µM (inactive)
CO[P@]1(=O)O[C@@H](c2ccccc2)[C@H](O)[C@@]1(O)c1ccccc1 | – | – | > 100 µM (inactive) | – | –
Nc1nc(CCl)nc(Nc2ccccc2)n1 | 36.9 µM (inactive) | 18.6 µM (inactive) | – | 14.8 µM (inactive) | GI50 (DMS-114): 18.4 µM (inactive)
COc1ccc(NCc2cc(OC)c(OC)c(OC)c2)cc1 | 0.345 µM (active) | 0.228 µM (active) | – | 0.614 µM (active) | –
O=c1oc2ccc(Cl)cc2cc1-c1cn2ccsc2n1 | – | – | 24.1 µM (inactive) | – | –
Cn1c(NC(=O)NC23CC4CC(CC(C4)C2)C3)nc2ccccc21 | > 100 µM (inactive) | > 100 µM (inactive) | – | 86.1 µM (inactive) | GI50 (SNB-78): 23.8 µM (inactive); GI50 (HOP-18): 19.2 µM (inactive)
COC(=O)c1ccc(C)cc1CC1Cc2ccc(C)cc2C1=O (stereo not drawn) | – | – | 12.2 µM (inactive) | – | –
O=S(=O)(SCCCCSS(=O)(=O)c1ccc(Cl)cc1)c1ccc(Cl)cc1 | 13.8 µM (inactive) | 18 µM (inactive) | – | 12.2 µM (inactive) | GI50 (DMS-114): 6.67 µM (inactive); GI50 (SNB-78): 18.6 µM (inactive); GI50 (RXF 631): 8.2 µM (inactive); GI50 (HOP-18): 13.6 µM (inactive)

SMILES | GI50 (DLD-1) | GI50 (KM-20L2) | GI50 (BT-549) | GI50 (LXFL 529) | further results
CCCCCn1c(=O)c2c(=O)[nH][nH]c2c2ccccc21 | – | – | > 100 µM (inactive) | – | –
Nc1nc(SCCc2ccccc2)c2nc[nH]c2n1 | – | – | 47.3 µM (inactive) | – | –
COc1ccc2c(c1)CCc1c-2n(CCN2CCOCC2)c2ccc(OC)cc12 | – | – | > 100 µM (inactive) | – | –
CC1(C)/C(=N\Nc2ccc([N+](=O)[O-])cc2[N+](=O)[O-])C2CCC1C2 (stereo not drawn) | – | – | > 100 µM (inactive) | – | –
CCNC(=O)c1ccc(C)c(/N=N/N(C)C)c1 | > 100 µM (inactive) | > 100 µM (inactive) | – | > 100 µM (inactive) | GI50 (SNB-78): > 100 µM (inactive)
COc1cc([C@@H]2c3cc4c(cc3[C@H](OC3OC5COC(c6ccco6)OC5C(O)C3O)C3COC(=O)[C@@H]32)OCO4)cc(OC)c1OC (stereo partly drawn) | – | – | 3.21 µM (inactive) | – | –
Cc1ccc(S(=O)(=O)N2CCNCCN(S(=O)(=O)c3ccc(C)cc3)CCNCC2)cc1 | – | – | 19.1 µM (inactive) | – | –
Cc1cc(Cl)ccc1NC(=O)CC/C(CC(=O)C(C)C)=N\NC(=O)C[n+]1ccccc1 | – | > 100 µM (inactive) | – | > 100 µM (inactive) | GI50 (DMS-114): > 100 µM (inactive); GI50 (SNB-78): > 100 µM (inactive); GI50 (XF498): > 100 µM (inactive); GI50 (RXF 631): > 100 µM (inactive); GI50 (HOP-18): > 100 µM (inactive)
CN1C2CCC1CC(=CCOC(c1ccc(F)cc1)c1ccc(F)cc1)C2 | – | – | 16.3 µM (inactive) | – | –
CC1CC/C(=C\c2ccc(Cl)cc2)C2OC(N)=C(C#N)C(c3ccc(Cl)cc3)=C12 (stereo not drawn) | – | – | 15.2 µM (inactive) | – | –
Cc1ccc(/N=C2N=C(Cl)/C(=C\c3ccccc3)N\2)cc1 | – | – | > 100 µM (inactive) | – | –
COc1ccc2[nH]c3cc4c(=O)c5cc(OC)ccc5[nH]c4cc3c(=O)c2c1 | – | – | > 100 µM (inactive) | – | –
C[C@@H]1C(=O)CC2(O)[C@@]13C[C@@H](OC(=O)[C@@H]3O)[C@@H](C)[C@@]21COC1=O (stereo partly drawn) | – | – | > 100 µM (inactive) | – | –
CC(C)CCCC(C)C1CCC2C3CC([N+](=O)[O-])=C4CC(O)CCC4(C)C3CCC12C (stereo not drawn) | 19 µM (inactive) | 18.5 µM (inactive) | – | 18.7 µM (inactive) | GI50 (DMS-114): 22 µM (inactive); GI50 (XF498): 22.3 µM (inactive)
COc1cccc(/C=C2\N=C(Cl)OC2=O)c1O | > 76.7 µM (inactive) | > 100 µM (inactive) | – | > 100 µM (inactive) | GI50 (DMS-114): > 100 µM (inactive); GI50 (SNB-78): > 100 µM (inactive); GI50 (XF498): > 100 µM (inactive); GI50 (HOP-18): > 100 µM (inactive)
